Measurements as given in PubChem BioAssay AID588587 (The Scripps Research Institute Molecular Screening Center, 2011).
Activity calls are given as the source filed them.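 Rule for the calls: active = inhibition above 60%; inactive = inhibition at or below 60%.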

Tested on: Fam108b (Abhd17b) [Mus musculus]
Test: inhibition of membrane-bound mouse Fam108b, SAR follow-up, cell lysate, gel-based competitive ABPP, membrane form, set 2 (AID 588587)
Conditions: Fam108b-overexpressing membrane proteome, FP-Rh, at 20 µM, stronger effect = higher value

| inhibition | SMILES |
| --- | --- |
| 0% (inactive) | O=c1oc(-c2ccccc2F)nc2scc(-c3cccs3)c12 |
| 0% (inactive) | CC(C)(C)c1nc2scc(-c3ccccc3)c2c(=O)o1 |
